# What was measured:
# [1] = cited from earlier work
# [2] = Transdermal delivery of estradiol and estradiol phosphate in ovariectomised hairless rats, total estrogens RIA in plasma
# Description: Animals: 23 female albino hairless rats were ovariectomised under isoflurane-induced anaesthesia and allowed to recover for 10 days prior to experimentation.
# Blood was collected into EDTA tubes, then centrifuged at 5000 rpm for 10 minutes. Plasma was removed and stored at −80° C. until assayed.
# 20 μl was transferred to an Eppendorf tube and the solvent was evaporated in a nitrogen stream. Then 0.999 g of the carrier cream from example 1 was added, and mixed with a glass rod and centrifuged. This was repeated 5 times. Final concentration=4.90 μg/ml.
# 20 μl was transferred to an Eppendorf tube and the solvent was evaporated in a nitrogen stream. Then 1.003 g of the carrier cream from example 1 was added, and mixed with a glass rod and centrifuged. This was repeated 5 times. Final concentration=4.89 μg/ml.
# 20 μl of these solutions was directly applied to the skin.
# Each formulation was applied to the dorsal skin of an anaesthetised rat in an area of approximately 4 cm^2 marked with an indelible felt tip marker. […] The formulation was ‘rubbed’ in until it appeared to have been absorbed into the skin, which took between 5-10 min. […]
# The standard curve range for this assay is 2.5-100 pg/ml (r^2=−0.943). Extraction efficiency was determined through a series of spiking assays and was between 90 to 98% using diethyl ether as the extraction solvent for rat plasma and organs. […]
# [3] = Acute transdermal penetration of 3H-estradiol and 3H-estradiol phosphate in the hairless rat; format: in vivo, female albino hairless rats; conditions: 24 hour period
# Description: Animals: 6 female albino hairless rats were used in this study (n=3 per treatment group).
# Transdermal Formulation Preparation and Application: ^3H-E and ^3H-EP were provided by Vital Health Sciences Pty Ltd and prepared in formula approximately 1 hour before application in the carrier cream from Example 1.
# The solvents from both ^3H-E and ^3H-EP were evaporated under a stream of nitrogen. Once completely dry 0.498 g of the carrier cream of example 1 was added to ^3H-E and 0.502 g to ^3H-EP and mixed with a glass rod and centrifuged for 1 minute. This was repeated 5 times.
# Each formulation was applied to the dorsal skin of an anaesthetised rat in an area of approximately 4 cm^2 marked with an indelible felt tip marker. […] The formulation was ‘rubbed’ in until it appeared to have been absorbed into the skin, which took between 5 to 10 minutes. A tegaderm (3M) patch was applied to the area to prevent animals from removing the formulation.
# [4] = Transdermal delivery of testosterone and testosterone phosphate in ovariectomised hairless rats, total testosterone in plasma; format: in vivo, Female albino hairless rats; conditions: for concentration of testosterone in blood: topical 1 μg in carrier of Example 1
# Description: Animals: 12 Female albino hairless rats were ovariectomised under isoflurane-induced anesthesia and allowed to recover for 15 days prior to experimentation.
# Plasma was removed and stored at −80° C. until assay.
# Testosterone Phosphate (TP): 4.41 mg of TP was dissolved in 15 ml of water and then made up to 100 ml with ethanol. […] This was repeated 5 times.
# Testosterone (T): 3.94 mg of T was dissolved in 15 ml of water and then made up to 100 ml with ethanol. […] This was repeated 5 times.
compound,measurement,setting,value
"C[C@]12CC[C@@H]3c4ccc(O)cc4CC[C@H]3[C@@H]1CC[C@@H]2O [E, estradiol]",mean blood levels of estradiol 24 hours post dose,"[1]; 3 mg daily over 30 cm2, carrier with padimate O, 4 women, 9 days",0.053 ± 0.007 ng/mL
same,improvement of circulating estradiol from baseline,[1]; baseline 13±5 pg/ml,4 fold
"C[C@]12CC[C@@H]3c4ccc(O)cc4CC[C@H]3[C@@H]1CC[C@@H]2OP(=O)(O)O [EP, estradiol 3:phosphate]","plasma concentration of the hormone, EP versus E treatment","[2]; equivalent doses in carrier of Example 1, over 24 hours",at least twice the plasma concentration of the hormone compared to the E treatment
same,"inflammatory symptoms (erythema, oedema) at the application site",[2]; topical in carrier cream of Example 1,neither E or EP treatment produced any inflammatory symptoms
same,levels in epidermis and dermis,[3],Higher levels of EP were found in the epidermis and dermis
"C[C@]12CC[C@H]3[C@@H](CCC4=CC(=O)CC[C@@]43C)[C@@H]1CC[C@@H]2O [T, testosterone]",concentration of testosterone in blood,[4],increased
same,maximum concentration of total testosterone in plasma (mean±SD),"[4]; topical 1 μg in carrier of Example 1, baseline subtracted",30.90 ± 11.00 pg/mL
testosterone phosphate [TP],concentration of testosterone in blood,[4],increased

# — patent US8841342B2, “Carrier” (Vital Health Sciences Pty. Ltd., priority 2002, dated 2014)
